Reference: patent US6624150B2, “Method of treating gastrointestinal tract disease with purinergic receptor agonists” (Inspire Pharmaceuticals, Inc., priority 1999, dated 2003)

How the values were obtained:
T84 cells = test: Intracellular calcium mobilization (Fluo-3 AM, FLIPR) in T84 cells; format: cell-based; conditions: T84 human colonic epithelial cell line; FIG. 5
Text: In addition, the pharmaceutical utility of P2Y agonist compounds of this invention are indicated by the intracellular calcium mobilization assay for P2Y activity. In this assay, cultured cells are stimulated with the increasing concentrations of P2Y receptor agonists. Intracellular calcium levels are monitored by measuring the changes in fluorescence intensity of a calcium-sensitive dye using the FLIPR (Molecular Devices Corp., Sunnyvale, Calif.) or equivalent instrumentation. A conventional technique is used to detect intracellular calcium mobilization induced by P2Y receptor agonists. The technique is familiar to those well versed in the art. Cells are seeded in 96-well plates and used for calcium mobilization assays. On the day of the assay, the growth medium is aspirated and replaced with a solution of Fluo-3 AM (2.5 μM final concentration) in an assay buffer consisting of (mM): KCI (10.0), NaCl (118), CaCl2(2.5), MgCl2 (1.0), HEPES (20), glucose (10), pH 7.4. Probenecid (Sigma Chemical Co.) is added to the dye load and dye wash medium at a working concentration of 2.5mM to increase dye retention in the cells. After a 60 minute incubation with Fluo-3 AM at 25° C., cells are washed free of dye (Columbus Plate Washer, TECAN U.S., Inc., Research Triangle Park, N.C.) and are stimulated with increasing concentrations of P2Y receptor agonists. Intracellular calcium levels are simultaneously monitored in each well by measuring the changes in fluorescence intensity using the FLIPR (Molecular Devices Corp., Sunnyvale, Calif.). T84 cells, a human colonic epithelial cell line, were subjected to the calcium mobilization assay described above. […] The activation of intracellular calcium mobilization by ATP and UTP in T84 and HT-29 cells indicate the pharmaceutical utility of P2Y receptor agonists in the gastrointestinal tract.

HT-29 cells [1] = test: Intracellular calcium mobilization (Fluo-3 AM, FLIPR) in HT-29 cells; format: cell-based; conditions: human colonic HT-29 cells; FIG. 6
Text: In addition, the pharmaceutical utility of P2Y agonist compounds of this invention are indicated by the intracellular calcium mobilization assay for P2Y activity. In this assay, cultured cells are stimulated with the increasing concentrations of P2Y receptor agonists. Intracellular calcium levels are monitored by measuring the changes in fluorescence intensity of a calcium-sensitive dye using the FLIPR (Molecular Devices Corp., Sunnyvale, Calif.) or equivalent instrumentation. A conventional technique is used to detect intracellular calcium mobilization induced by P2Y receptor agonists. The technique is familiar to those well versed in the art. Cells are seeded in 96-well plates and used for calcium mobilization assays. On the day of the assay, the growth medium is aspirated and replaced with a solution of Fluo-3 AM (2.5 μM final concentration) in an assay buffer consisting of (mM): KCI (10.0), NaCl (118), CaCl2(2.5), MgCl2 (1.0), HEPES (20), glucose (10), pH 7.4. Probenecid (Sigma Chemical Co.) is added to the dye load and dye wash medium at a working concentration of 2.5mM to increase dye retention in the cells. […] Intracellular calcium levels are simultaneously monitored in each well by measuring the changes in fluorescence intensity using the FLIPR (Molecular Devices Corp., Sunnyvale, Calif.). […]

HT-29 cells [2] = conditions: Otero et al. Mol Cell Biochem 2000; cited from earlier work
Goblet cells = Goblet cells in vitro; Lethem et al. 1993; cited from earlier work

| SMILES | calcium mobilization (T84 cells) | calcium mobilization (P2Y response) (HT-29 cells [1]) | calcium mobilization (HT-29 cells [2]) | rate and total amount of mucin secretion (Goblet cells) |
| --- | --- | --- | --- | --- |
| O=c1ccn([C@@H]2O[C@H](COP(=O)(O)OP(=O)(O)OP(=O)(O)O)[C@@H](O)[C@H]2O)c(=O)[nH]1 [UTP, uridine 5′-triphosphate] | stimulate calcium mobilization | robust P2Y response | stimulated calcium mobilization | increase both the rate and total amount of mucin secretion |
| CSc1nc(N)c2ncn([C@@H]3O[C@H](COP(=O)(O)OP(=O)(O)O)[C@@H](O)[C@H]3O)c2n1 [2-methylthioADP] | did not simulate calcium mobilization |  |  |  |
| Nc1ncnc2c1ncn2[C@@H]1O[C@H](COP(=O)(O)OP(=O)(O)OP(=O)(O)O)[C@@H](O)[C@H]1O [ATP, 5′-adenosine triphosphate] | stimulate calcium mobilization | robust P2Y response |  |  |
